Laboratory results from ChEMBL document CHEMBL4257522, “Synthesis and preliminary anti-inflammatory and anti-bacterial evaluation of some diflunisal aza-analogs” (Medchemcomm, 2018).
Active and inactive are the calls of the source. The calls are words filed in the database; no cut-off is given here.

Assays:
[1] = tested on: Macrophage cell line; assay: Cytotoxicity against human PBMC-differentiated macrophages treated for 24 hrs followed by compound washout and measured after 48 hrs by MTT assay; assay type: cell-based
[2] = tested on: Macrophage cell line; assay: Antiinflammatory activity in human PBMC-differentiated macrophages assessed as inhibition of LPS-induced IL-8 production at 0.01 to 10 uM measured after 24 hrs by ELISA; assay type: functional, cell-based
[3] = tested on: Macrophage cell line; assay: Antiinflammatory activity in human PBMC-differentiated macrophages assessed as inhibition of LPS-induced prostaglandin production at 0.01 to 10 uM measured after 24 hrs by ELISA; assay type: functional, cell-based
[4] = tested on: Macrophage cell line; assay: Induction of TNFalpha production in human PBMC-differentiated macrophages after 24 hrs by ELISA; assay type: cell-based
[5] = tested on: Macrophage cell line; assay: Induction of IL-8 production in human PBMC-differentiated macrophages after 24 hrs by ELISA; assay type: cell-based
[6] = tested on: Macrophage cell line; assay: Induction of IL-1beta production in human PBMC-differentiated macrophages after 24 hrs by ELISA; assay type: cell-based
[7] = tested on: Macrophage cell line; assay: Induction of prostaglandin production in human PBMC-differentiated macrophages after 24 hrs by ELISA; assay type: cell-based
[8] = tested on: Staphylococcus aureus; assay: Toxicity in Staphylococcus aureus ATCC 33592 up to 32 uM measured after 16 hrs; assay type: organism-based
[9] = tested on: Streptococcus pyogenes; assay: Toxicity in Streptococcus pyogenes ATCC 14289 up to 32 uM measured after 16 hrs; assay type: organism-based
[10] = tested on: Klebsiella pneumoniae; assay: Toxicity in Klebsiella pneumoniae ATCC 13883 up to 32 uM measured after 16 hrs; assay type: organism-based
[11] = tested on: Enterococcus faecium; assay: Toxicity in Enterococcus faecium ATCC 700221 up to 32 uM measured after 16 hrs; assay type: organism-based; details: in vitro
[12] = tested on: Escherichia coli; assay: Toxicity in Escherichia coli ATCC 43894 up to 32 uM measured after 16 hrs; assay type: organism-based
[13] = tested on: Staphylococcus aureus; assay: Potentiation of methicillin-induced antibacterial activity against Staphylococcus aureus ATCC 33592 assessed as minimum modulatory concentration up to 32 uM measured after 16 hrs in presence of MIC/4 methicillin; assay type: functional; details: ATCC 33592, 16 h, read-out: MEC
[14] = tested on: Staphylococcus aureus; assay: Potentiation of geneticin-induced antibacterial activity against Staphylococcus aureus ATCC 33592 assessed as minimum modulatory concentration up to 32 uM measured after 16 hrs in presence of MIC/4 geneticin; assay type: functional; details: ATCC 33592, 16 h, read-out: MEC
[15] = tested on: Staphylococcus aureus; assay: Potentiation of ciprofloxacin-induced antibacterial activity against Staphylococcus aureus ATCC 33592 assessed as minimum modulatory concentration up to 32 uM measured after 16 hrs in presence of MIC/4 ciprofloxacin; assay type: functional; details: ATCC 33592, 16 h, read-out: MEC
[16] = tested on: Staphylococcus aureus; assay: Potentiation of tetracycline-induced antibacterial activity against Staphylococcus aureus ATCC 33592 assessed as minimum modulatory concentration up to 32 uM measured after 16 hrs in presence of MIC/4 tetracycline; assay type: functional; details: ATCC 33592, 16 h, read-out: MEC
[17] = tested on: Staphylococcus aureus; assay: Potentiation of erythromycin-induced antibacterial activity against Staphylococcus aureus ATCC 33592 assessed as minimum modulatory concentration up to 32 uM measured after 16 hrs in presence of MIC/4 erythromycin; assay type: functional; details: ATCC 33592, 16 h, read-out: MEC
[18] = tested on: Streptococcus pyogenes; assay: Potentiation of methicillin-induced antibacterial activity against Streptococcus pyogenes ATCC 14289 assessed as minimum modulatory concentration up to 32 uM measured after 16 hrs in presence of MIC/4 methicillin; assay type: functional; details: ATCC 14289, 16 h, read-out: MEC
[19] = tested on: Streptococcus pyogenes; assay: Potentiation of geneticin-induced antibacterial activity against Streptococcus pyogenes ATCC 14289 assessed as minimum modulatory concentration up to 32 uM measured after 16 hrs in presence of MIC/4 geneticin; assay type: functional; details: ATCC 14289, 16 h, read-out: MEC
[20] = tested on: Streptococcus pyogenes; assay: Potentiation of erythromycin-induced antibacterial activity against Streptococcus pyogenes ATCC 14289 assessed as minimum modulatory concentration up to 32 uM measured after 16 hrs in presence of MIC/4 erythromycin; assay type: functional; details: ATCC 14289, 16 h, read-out: MEC
[21] = tested on: Klebsiella pneumoniae; assay: Potentiation of methicillin-induced antibacterial activity against Klebsiella pneumoniae ATCC 13883 assessed as minimum modulatory concentration up to 32 uM measured after 16 hrs in presence of MIC/4 methicillin; assay type: functional; details: ATCC 13883, 16 h, read-out: MEC
[22] = tested on: Klebsiella pneumoniae; assay: Potentiation of geneticin-induced antibacterial activity against Klebsiella pneumoniae ATCC 13883 assessed as minimum modulatory concentration up to 32 uM measured after 16 hrs in presence of MIC/4 geneticin; assay type: functional; details: ATCC 13883, 16 h, read-out: MEC
[23] = tested on: Klebsiella pneumoniae; assay: Potentiation of ciprofloxacin-induced antibacterial activity against Klebsiella pneumoniae ATCC 13883 assessed as minimum modulatory concentration up to 32 uM measured after 16 hrs in presence of MIC/4 ciprofloxacin; assay type: functional; details: ATCC 13883, 16 h, read-out: MEC
[24] = tested on: Klebsiella pneumoniae; assay: Potentiation of tetracycline-induced antibacterial activity against Klebsiella pneumoniae ATCC 13883 assessed as minimum modulatory concentration up to 32 uM measured after 16 hrs in presence of MIC/4 tetracycline; assay type: functional; details: ATCC 13883, 16 h, read-out: MEC
[25] = tested on: Klebsiella pneumoniae; assay: Potentiation of erythromycin-induced antibacterial activity against Klebsiella pneumoniae ATCC 13883 assessed as minimum modulatory concentration up to 32 uM measured after 16 hrs in presence of MIC/4 erythromycin; assay type: functional; details: ATCC 13883, 16 h, read-out: MEC
[26] = tested on: Enterococcus faecium; assay: Potentiation of methicillin-induced antibacterial activity against Enterococcus faecium ATCC 700221 assessed as minimum modulatory concentration up to 32 uM measured after 16 hrs in presence of MIC/4 methicillin; assay type: functional; details: ATCC 700221, 16 h, read-out: MEC
[27] = tested on: Enterococcus faecium; assay: Potentiation of geneticin-induced antibacterial activity against Enterococcus faecium ATCC 700221 assessed as minimum modulatory concentration up to 32 uM measured after 16 hrs in presence of MIC/4 geneticin; assay type: functional; details: ATCC 700221, 16 h, read-out: MEC
[28] = tested on: Enterococcus faecium; assay: Potentiation of tetracycline-induced antibacterial activity against Enterococcus faecium ATCC 700221 assessed as minimum modulatory concentration up to 32 uM measured after 16 hrs in presence of MIC/4 tetracycline; assay type: functional; details: ATCC 700221, 16 h, read-out: MEC
[29] = tested on: Enterococcus faecium; assay: Potentiation of erythromycin-induced antibacterial activity against Enterococcus faecium ATCC 700221 assessed as minimum modulatory concentration up to 32 uM measured after 16 hrs in presence of MIC/4 erythromycin; assay type: functional; details: ATCC 700221, 16 h, read-out: MEC
[30] = tested on: Pseudomonas aeruginosa; assay: Potentiation of geneticin-induced antibacterial activity against Pseudomonas aeruginosa ATCC BAA-2108 assessed as minimum modulatory concentration up to 32 uM measured after 16 hrs in presence of MIC/4 geneticin; assay type: functional; details: ATCC BAA-2108, 16 h, read-out: MEC
[31] = tested on: Pseudomonas aeruginosa; assay: Potentiation of erythromycin-induced antibacterial activity against Pseudomonas aeruginosa ATCC BAA-2108 assessed as minimum modulatory concentration up to 32 uM measured after 16 hrs in presence of MIC/4 erythromycin; assay type: functional; details: ATCC BAA-2108, 16 h, read-out: MEC
[32] = tested on: Escherichia coli; assay: Potentiation of geneticin-induced antibacterial activity against Escherichia coli ATCC 43894 assessed as minimum modulatory concentration up to 32 uM measured after 16 hrs in presence of MIC/4 geneticin; assay type: functional; details: ATCC 43894, 16 h, read-out: MEC
[33] = tested on: Escherichia coli; assay: Potentiation of tetracycline-induced antibacterial activity against Escherichia coli ATCC 43894 assessed as minimum modulatory concentration up to 32 uM measured after 16 hrs in presence of MIC/4 tetracycline; assay type: functional; details: ATCC 43894, 16 h, read-out: MEC
[34] = tested on: Escherichia coli; assay: Potentiation of erythromycin-induced antibacterial activity against Escherichia coli ATCC 43894 assessed as minimum modulatory concentration up to 32 uM measured after 16 hrs in presence of MIC/4 erythromycin; assay type: functional; details: ATCC 43894, 16 h, read-out: MEC

| Structure (SMILES) | IC50 [1] [µM] | inhibition [2] | inhibition [3] | Activity [4] | Activity [5] | Activity [6] | Activity [7] | Activity [8] | Activity [9] | Activity [10] | Activity [11] | Activity [12] | minimal effective concentration [13] [µM] | minimal effective concentration [14] [µM] | minimal effective concentration [15] [µM] | minimal effective concentration [16] [µM] | minimal effective concentration [17] [µM] | minimal effective concentration [18] [µM] | minimal effective concentration [19] [µM] | minimal effective concentration [20] [µM] | further results |
| --- | --- | --- | --- | --- | --- | --- | --- | --- | --- | --- | --- | --- | --- | --- | --- | --- | --- | --- | --- | --- | --- |
| O=C(O)c1cnc(-c2ccccc2)c(O)c1 | > 100 | inactive | inactive | Non-Toxic | Non-Toxic | Non-Toxic | Non-Toxic | Non-Toxic | Non-Toxic | Non-Toxic | Non-Toxic | Non-Toxic | 0.5 | 2 | > 32 | 0.25 | 2 | 1 | 8 | 4 | minimal effective concentration [21]: > 32 µM; minimal effective concentration [22]: > 32 µM; minimal effective concentration [23]: > 32 µM; minimal effective concentration [24]: > 32 µM; minimal effective concentration [25]: > 32 µM; minimal effective concentration [26]: 0.5 µM; minimal effective concentration [27]: 8 µM; minimal effective concentration [28]: 1 µM; minimal effective concentration [29]: 4 µM; minimal effective concentration [30]: > 32 µM; minimal effective concentration [31]: 4 µM; minimal effective concentration [32]: > 32 µM; minimal effective concentration [33]: > 32 µM; minimal effective concentration [34]: > 32 µM |
| C[n+]1ccc(C(=O)[O-])c(O)c1Cc1ccccc1 | > 100 | inactive | inactive | Non-Toxic | Non-Toxic | Non-Toxic | Non-Toxic | Non-Toxic | Non-Toxic | Non-Toxic | Non-Toxic | Non-Toxic | > 32 | > 32 | > 32 | > 32 | > 32 | > 32 | > 32 | > 32 | minimal effective concentration [21]: > 32 µM; minimal effective concentration [22]: > 32 µM; minimal effective concentration [23]: > 32 µM; minimal effective concentration [24]: > 32 µM; minimal effective concentration [25]: > 32 µM; minimal effective concentration [26]: > 32 µM; minimal effective concentration [27]: > 32 µM; minimal effective concentration [28]: > 32 µM; minimal effective concentration [29]: > 32 µM; minimal effective concentration [30]: > 32 µM; minimal effective concentration [31]: > 32 µM; minimal effective concentration [32]: > 32 µM; minimal effective concentration [33]: > 32 µM; minimal effective concentration [34]: > 32 µM |
| Cc1nc(-c2ccccc2)cc(C(=O)O)c1O | 90.8 | inactive | inactive | Non-Toxic | Non-Toxic | Non-Toxic | Non-Toxic | Non-Toxic | Non-Toxic | Non-Toxic | Non-Toxic | Non-Toxic | 16 | 16 | > 32 | 16 | > 32 | > 32 | > 32 | > 32 | minimal effective concentration [21]: > 32 µM; minimal effective concentration [22]: > 32 µM; minimal effective concentration [23]: > 32 µM; minimal effective concentration [24]: > 32 µM; minimal effective concentration [25]: > 32 µM; minimal effective concentration [26]: > 32 µM; minimal effective concentration [27]: > 32 µM; minimal effective concentration [28]: > 32 µM; minimal effective concentration [29]: > 32 µM; minimal effective concentration [30]: > 32 µM; minimal effective concentration [31]: > 32 µM; minimal effective concentration [32]: > 32 µM; minimal effective concentration [33]: > 32 µM; minimal effective concentration [34]: > 32 µM |
